Assay results published in a melting point compilation (Tetko et al.; mined from patent text by program, amines drawn as free bases though some values may be those of a salt).

First: CC(=O)N1CCN(c2cc(Cl)c(Cl)c(Cl)c2)CC1
Second: Clc1ccc(N2CCN(Cc3cn4cc(Cl)ccc4n3)CC2)c(Cl)c1
The melting point of the first is lower: 133 to 136 °C for the first, 136 to 138 °C for the second.

Compared with Nc1cc(Br)cnc1CCCCNC1=NS(=O)N=C1NCc1ccncc1 (centres undefined), Cc1ccc(Cc2cnc(NCCCN(Cc3ccccc3)c3ccc(Br)cn3)[nH]c2=O)cn1 is higher in melting point: 63 to 66 °C for the first, 150 to 155 °C for the second.

Compared with CCC(=O)OCc1cc2c3ccccc3[nH]c(=O)n2n1, CC(C)Cn1cnc2c(NN)nc3ccccc3c21 is higher in melting point: 184 to 186 °C for the first, 202 to 205 °C for the second.

First: CCOc1cc(C(CC(=O)OC)N2C(=O)c3cccc(N)c3C2=O)ccc1OC (centres undefined)
Second: COc1ccc(-n2nc(-c3ccc(OC)c(CCC(=O)N(C)O)c3OC)cc2-c2ccc(Cl)cc2)cc1
The melting point of the first is higher: 134 to 136 °C for the first, 90 to 92 °C for the second.

First: CN1CCN(c2nn(CC3CC3)c3ccccc23)CC1
Second: COc1ccc2nc(CN3CCN(c4ccc(Cl)cc4Cl)CC3)cn2c1
The melting point of the first is lower: 68 to 70 °C for the first, 130 °C for the second.

Compared with COc1ccc(CCCCC(=O)O)cc1NC(=O)C[C@H]1O[C@H](c2cccc(OC)c2OC)c2cc(Cl)ccc2N(CC(C)(C)CO)C1=O, COc1ccc(CNc2nc(OCc3ccccn3)ncc2C(=O)c2cc(OC)c(OC)c(OC)c2)cc1Cl is lower in melting point: 136 to 138 °C for the first, 129 °C for the second.

Compared with CC1=CCC2(C)C(CCC3C4CCC(=O)C4(C)CCC32)C1 (centres undefined), CC(=O)C1=CCC2C3CCC4=CC(=O)C=CC4(C)C3(F)C(O)CC12C (centres undefined) is higher in melting point: 124 to 126 °C for the first, 327 to 328 °C for the second.

Compared with CCC(=O)Nc1ccc(OCc2nc3ccccc3s2)cc1, O=C(O)c1ccc(NCCOc2ccc(Br)cc2)cc1 is higher in melting point: 182 °C for the first, 190 to 192 °C for the second.

First: COc1cccc(COc2cc3c(cc2-c2cc(C=CC(=O)O)ccc2O)C(C)(C)CCC3(C)C)c1
Second: CCOC(=O)c1cn(Cc2ccccc2)nc1OCc1cccc(OCc2nc(-c3ccco3)oc2C)c1
The melting point of the first is higher: 113 to 115 °C for the first, 92 to 93 °C for the second.

First: Cc1ccc(C2(CNC(=O)Nc3c(C(C)C)cccc3C(C)C)CCC2)cc1
Second: COc1ccc(S(=O)(=O)C2(C(=O)NO)CCN(Cc3ccc(C)cc3)CC2)cc1
The melting point of the first is lower: 166 to 168 °C for the first, 176 to 177 °C for the second.

First: CC1(C)CC(NC(=O)C(O)c2ccccc2)c2cc(C#N)ccc2O1 (centres undefined)
Second: CCc1cccc(CC)c1N(Cc1c[nH]nn1)C(=O)c1ccccc1
The melting point of the first is higher: 120 to 121 °C for the first, 112 to 115 °C for the second.

Compared with Cc1cc(Br)c(S(C)(=O)=O)cc1C(=O)N=C(N)N, O=C1NC(=O)C(S(=O)(=O)c2ccc(Br)cc2)S1 (centres undefined) is lower in melting point: 207 to 208 °C for the first, 156 to 158 °C for the second.

First: CCNC(=O)c1cc(N)c([N+](=O)[O-])cc1OC
Second: CCN(CC)CCNC(=O)c1cc(Cl)c(N)cc1OCC(=O)OC
The melting point of the first is higher: 235 to 239 °C for the first, 92 to 94 °C for the second.

Compared with Cc1cc(Oc2ccc3nc(COc4ccc(CC5SC(=O)NC5=O)cc4)n(C)c3c2)cc(C)c1N (centres undefined), Cc1nc(-n2cnn(Cc3ccc(F)cc3)c2=O)sc1C(=O)NCc1cnn(C)c1 is lower in melting point: 209 to 211 °C for the first, 205 to 206 °C for the second.

First: Ic1ccc(Cc2cc(I)c(Cc3ccc(I)cc3)cc2I)cc1
Second: OCc1ccc2ncc(C(=S)NCc3ccc(Cl)cc3)c(O)c2c1
The melting point of the first is lower: 210 to 213 °C for the first, 240 to 242 °C for the second.

Compared with N#Cc1cc2n(c1)CCc1ccccc1C2=O, CC1=C(Cn2ccnc2)CCc2ccc(C(=O)O)cc21 is higher in melting point: 146 to 147 °C for the first, 278 to 280 °C for the second.

Compared with COc1cccc2c1OC(CO)CN2C(=O)OC(C)(C)C (centres undefined), CC(C)(C)OC(=O)n1cnc2c(N)cccc21 is higher in melting point: 65 to 68 °C for the first, 117 °C for the second.

Compared with CC(=O)OCCCN1CCC(CNC(=O)[C@@H]2CCCN2S(=O)(=O)c2ccc(Cl)c(COc3cccc4c(-n5ccnc5)cc(C)nc34)c2Cl)CC1, COCc1cnc2c(NC(=O)c3c(Cl)cccc3Cl)cccc2c1OCc1cccnc1 is higher in melting point: 96 °C for the first, 174 to 176 °C for the second.

Compared with COC(=O)c1snc(-c2cccc(C)c2)c1C(=O)OC, COC(=O)c1nn(CCN(C)C)c2nc3cc(OC)ccc3cc12 is higher in melting point: 53 to 54.5 °C for the first, 127 to 128 °C for the second.

First: O=[N+]([O-])c1ccc(NN=Cc2ncc[nH]2)nc1
Second: Cc1cc(C23CC4CC(CC(C4)C2)C3)ccc1NC(=O)c1cc([N+](=O)[O-])ccc1Br
The melting point of the first is higher: 268 to 269 °C for the first, 229 °C for the second.

S=c1[nH]nc(C=Cc2ccc3ccccc3c2)o1 and O=C(O)c1ccc2nc3ccccn3c(=O)c2c1 cannot be ordered by melting point: over 250 °C for the first, over 310 °C for the second.

First: Oc1nsc(SCc2ccc(Cl)cc2Cl)n1
Second: O=C(O)c1cccc(-c2cccc(OCCc3ccc(Cl)cc3Cl)n2)c1
The melting point of the first is lower: 134 °C for the first, 199 to 200 °C for the second.

First: CCCO[C@@H](C)C(=O)Oc1ccc(-c2ccc(C(=O)O)cc2)cc1
Second: CC(O)c1ccc(-c2ccc(N)cc2)cc1 (centres undefined)
The melting point of the first is higher: 155 °C for the first, 111 to 115 °C for the second.

First: N#CC(=O)c1ccccc1CCl
Second: O=C(O)c1cccc(Br)c1Nc1ccccc1Br
The melting point of the first is lower: 54.5 to 56.5 °C for the first, 181 to 182 °C for the second.

First: CC(C)(C)[Si](C)(C)O[C@H]1CC(=O)O[C@H](CO)C1
Second: Cc1nc(N)sc1C(=O)OC(C)(C)C
The melting point of the first is lower: 102 °C for the first, 167 to 170 °C for the second.

Compared with CN(CN1C(=O)c2ccccc2C1=O)c1c(S(=O)C(F)(F)F)c(C#N)nn1-c1c(Cl)cc(C(F)(F)F)cc1Cl (centres undefined), Cc1ccc(-c2c(C(=O)NCc3cc(C(F)(F)F)cc(C(F)(F)F)c3)n(CCCCO)c(=O)c3cnccc23)cc1 is lower in melting point: 163 °C for the first, 128 to 131 °C for the second.

Compared with COC(C)c1cc2c(=O)n(NS(C)(=O)=O)c(=O)[nH]c2cc1C(F)(F)F (centres undefined), Cc1ccc2c(OS(=O)(=O)C(F)(F)F)cc(=O)oc2c1 is lower in melting point: 233 to 236 °C for the first, 95 to 96 °C for the second.

Compared with CCCCCCCCCC1C=CC(Oc2ccc(C(=O)O)o2)=C2N=C3CCCCC3=C21 (centres undefined), CN1CCN(c2ccc(C(=O)NCCCCCCCCCCCCO[N+](=O)[O-])cn2)CC1 is lower in melting point: 130 to 132 °C for the first, 74 to 76 °C for the second.

First: Cn1c(/C=C/C2CC(O)CC(=O)O2)c(-c2ccccc2)c2ccccc2c1=O (centres undefined)
Second: O=C(c1ccccc1)N1CCc2[nH]c3cccc(-c4ccccc4)c3c2CC1
The melting point of the first is lower: 190 to 193 °C for the first, 223 to 226 °C for the second.

First: O=C1c2cccc(Sc3ccccc3)c2C(=O)c2cccc(Nc3ccc([N+](=O)[O-])cc3)c21
Second: O=C1NC(=O)C(=Cc2ccc(CCSc3ccccc3)cc2)S1
The melting point of the first is higher: 242 to 244 °C for the first, 159 to 161 °C for the second.

First: COc1cc(-c2nc(NC(C)C)c3c(C)c(C#N)sc3n2)cc(OC)c1OC
Second: COc1cc2c(cc1OC)C(=O)C(CC=O)C2 (racemic)
The melting point of the first is higher: 191 to 193 °C for the first, 122 °C for the second.

Compared with CN(C)CCSc1cc(NC(=O)OC(C)(C)C)c(NC(=O)CC(=O)c2cccc(C#N)c2)cc1C#Cc1ccccc1, O=C(Cc1ccccc1)NC(SC(=O)c1ccccc1)C(=O)O (centres undefined) is higher in melting point: 88 °C for the first, 133 to 138 °C for the second.

First: CCCCCCC(C)(C)c1cc(O)c(C2=C(CCO)CCC(C)C2)c(O)c1 (centres undefined)
Second: CCCCCCC(=N)NC(=S)Nc1cccc(C(F)(F)F)c1
The melting point of the first is lower: 83 to 86 °C for the first, 105 to 107 °C for the second.

First: CC(CC(=O)NCCc1ccc(C(=O)O)cc1)(c1ccccc1)c1ccccc1
Second: NC(C(=O)O)c1ccc(C(=O)O)cc1-c1ccccc1 (centres undefined)
The melting point of the first is lower: 211 °C for the first, 238 to 240 °C for the second.

First: COc1ccc(C2CSc3ccccc3N(CCCl)C2=O)cc1 (centres undefined)
Second: CCOC(=O)c1nnnn1Cc1ccc(OC)cc1
The melting point of the first is higher: 70 °C for the first, 52 °C for the second.

First: CC(C)CC(S)C(=O)NC(Cc1ccc(Br)nc1)C(=O)NC(Cc1ccc(-c2cccs2)nc1)C(=O)O (centres undefined)
Second: CC(C)CC(NC(=O)c1ccc(NCc2c[nH]cn2)cc1-c1ccccc1)C(=O)O (centres undefined)
The melting point of the first is higher: 194 to 195 °C for the first, 114 to 116 °C for the second.

First: CCCc1nc(C(=O)OCC)c(C(=O)OCC)[nH]1
Second: CCCSc1nccn2c(=O)c(C(=O)OCC)cnc12
The melting point of the first is lower: 81 to 83 °C for the first, 112 °C for the second.

First: O=C(O)C1Oc2ccc(Cl)cc2C(C2CCCCC2)(C2CCCCC2)O1 (centres undefined)
Second: CC(C)(C)C(=O)Nc1cc(Cl)ccc1Cl
The melting point of the first is higher: 208 °C for the first, 74 to 76 °C for the second.

First: COc1cc(OC)nc(NC(=O)NS(=O)(=O)c2cccc3c2SC(C)(C)C3)n1
Second: CC(=O)Nc1nc(C)c(CCC(C)c2ccc(Cl)cc2)c(NC(C)=O)n1 (centres undefined)
The melting point of the first is higher: 190 to 192 °C for the first, 136 to 138 °C for the second.

First: CC(CCCc1ccccc1)c1cc2c(cc1O)C1=C(CCCC1=O)C(C)(C)O2 (centres undefined)
Second: CCC(=Cc1ccccc1)C1=CC=C2C(C1)C(C)(C)CCC2(C)C (centres undefined)
The melting point of the first is higher: 186 to 188 °C for the first, 65 °C for the second.

First: Cn1c(CC#N)ccc1C(=O)c1cccc(Cl)c1
Second: CC(=O)N1CCC2(CC1)Nc1cc(C)ccc1-n1cccc12
The melting point of the first is lower: 122 to 127 °C for the first, 212 to 213 °C for the second.

First: CNC(=O)C(CC(O)CO)N(CCN(CCN(CCN(CC(=O)O)C(CC(O)CO)C(=O)NC)CC(=O)O)CC(=O)O)CC(=O)O (centres undefined)
Second: CCCCc1nc2c(N)nc3ccc(OCC(=O)N(CCOC)CCOC)cc3c2n1C
The melting point of the first is lower: 86 to 92 °C for the first, 125 to 128 °C for the second.

Compared with COCOc1ccc(-c2ncc3ncc(NC(=O)c4cccnc4)cc3n2)cc1, Cc1ccc(C(=O)Nc2ccc(N3CCN(Cc4ccc[nH]4)CC3)cc2)c(-c2ccc(C(F)(F)F)cc2)c1 is lower in melting point: 232 °C for the first, 196 to 198 °C for the second.

First: c1csc(C2=NCC3COCCN3c3cc4c(cc32)OCCO4)c1 (centres undefined)
Second: O=C1CCC(N2Cc3c(OCc4cccc(CN5CCOCC5)c4)cccc3C2=O)C(=O)N1 (centres undefined)
The melting point of the first is lower: 192 to 194 °C for the first, 247 to 249 °C for the second.

First: CC(Cc1ccc(O)cn1)NC1CC1 (centres undefined)
Second: CCNc1cccc2c1OC1(CC1)C2=O
The melting point of the first is higher: 161 °C for the first, 80.6 °C for the second.

First: CCCSc1nc(-c2ccc(Cl)cc2)c(CCC(=O)O)o1
Second: COc1cc(F)ccc1CCN1c2nc(-c3ccncn3)cc(=O)n2CCC1C (centres undefined)
The melting point of the first is lower: 128 to 129 °C for the first, 148 to 150 °C for the second.

First: C=CCOc1ccccc1OCCOS(C)(=O)=O
Second: CN(C)C1(c2ccccc2)CCC(CNC(=O)Oc2ccccc2)CC1 (centres undefined)
The melting point of the first is lower: 61 to 63 °C for the first, 108 to 124 °C for the second.

First: CCN1C(=O)C(C)(C)C(=O)N(C)c2cc(CN(CCn3ccc4sccc4c3=O)Cc3cccnc3C)ccc21
Second: Cc1nc(N2CCN(Cc3cccc(C(F)(F)F)c3)C2=O)sc1-c1cc[nH]n1
The melting point of the first is lower: 139 to 140 °C for the first, 209 to 214 °C for the second.

First: CON(C(=O)c1ccc(C(=O)C(C)(C)C)cc1)C(=O)c1ccc(C(=O)C(C)(C)C)cc1
Second: COc1ccc(Br)c2c1CC(=O)CO2
The melting point of the first is higher: 103 to 105 °C for the first, 97 to 100 °C for the second.

C=CC(O)c1ccccc1C#CC1C(O)C2CCN1CC2 (centres undefined) gave a melting point of 148 to 150 °C.
